From US6656916B1, “Glucocorticoid enhancement of gene expression” (Research Development Foundation, priority 1995, dated 2003)
Entries after “also recorded” stand apart in the source; their conditions may differ. Like-named read-outs stand apart in the source and are kept apart here.

Assays:
[1] = tested on: A549 cells; test: β-galactosidase (CPRG microtiter) activity in A549 cells transfected with reporter plasmid-cationic lipid; format: cell-based, human; settings: for β-gal expression over untreated cells: 10^−6 M beclomethasone 4 hours; for βgal activity versus medium treated, transfected cells: then beclomethasone 4 hours prior to transfection
[2] = tested on: primary rat lung cells; test: β-gal activity in primary rat lung cells transfected with pCMVβgal-DMRIE/DOPE; format: cell-based
[3] = tested on: A549 cells; test: X-gal staining, count of stained transfected A549 cells; format: cell-based, human; settings: BEC 10^−6 M 4 hours, DNA-DMRIE/DOPE, 48 hours, stained cells in 1×1 cm^2 area
Procedure: All transfections were performed in OPTIMEM (GIBCO-Life Technologies). One μg of pCMVβ gal was combined with 4 μg of DMRIE/DOPE or 3 μg of DOSPA/DOPE in 1 ml of OPTIMEM and incubated for 15 minutes at room temperature. Cell monolayers were washed twice in serum-free medium then overlaid with 1 ml of transfection mixture and incubated for 2.5 hours at 37° C. in a humidified, 5% CO2. DNA-liposome overlay was replaced with DMEM plus 10% FBS and cells were incubated for 48 hours. Cell lysates were harvested and assayed for total protein according to the manufacturer's instructions (BCA assay, Pierce Chemical, Rockfield, Ill.) and β -galactosidase activity was determined using a Chlorophenored-β-D-galactopyranoside colorimetric microtiter assay as described (CPRG) assay (Boerhinger-Mannheim, Germany). […]
For stained cells, duplicate cell cultures of A549 cells were treated for 4 hours with beclomethasone dipropionate or medium only, then transfected with pCMVβgal using DMRIE/DOPE. At 48 hours, one set of cultures was lysed and βgal activity determined while the other set was fixed with neutral buffered formalin and stained with β-gal (duplicate wells for each treatment). Stained cells were counted in a 1×1 cm^2 area.

[4] = tested on: A549 cells; test: 3H-thymidine-labeled pCMVβgal plasmid-lipid uptake; format: cell-based, human; settings: several concentrations, 4 hours pretreatment, uptake at 2 hours
Procedure: A549 cells were pretreated with medium or beclomethasone at the dose specified for 4 hours, then transfected with ^3H-thymidine-labeled pCMVβgal. Two hours post-transfection, cells were washed, lightly trypsinized and pelleted by centrifugation. Pellets were then lysed, resuspended, and liquid scintillation cocktail added. ^3H-thymidine-labeled pCMVβgal uptake (CPM) per sample was determined. Results represent the average and standard deviation from 4 experiments and each experimental point was performed in duplicate. Fold-change=CPM beclomethasone-pretreated/CPM medium pretreated.
^3H-thymidine-labeled pCMVβgal plasmid was prepared by adding 1 mCi of ^3H-TdR (^3H-TdR, 74GBq/mmol, Amersham) to a 25 ml overnight culture of pCMVβgal-transformed DH5α strain of Escherichia coli. Labeled plasmid was isolated using Qiagen tip columns (100 μg size, Chatsworth, Calif.) per manufacturer's instructions. Saturable binding of the labeled DNA was determined as follows. Serial dilutions, from 1 μg-0.125 μg of ^3-H-TdR-labeled DNA was added to A549 cells and incubated for either 2, 6 or 24 hours. […] Pellets were lysed in 100 μl of lysis buffer (0.1 M TRIS and 0.5% Triton X-100), liquid scintillation cocktail added (BCS, Amersham) and ^3H-plasmid label quantitated by liquid scintillation. […] Uptake was determined as described above.

[5] = tested on: A549 cells; test: β-gal mRNA levels by RNA-specific PCR (RS-PCR); format: cell-based, human
Procedure: A549 cells were treated with 10^-6 M beclomethasone or medium for 4 hours. Cells were transfected with 1 μg/ml pCMVβgal plus 4 μg/ml DMRIE/DOPE. At times specified (hours) after transfection, total RNA was harvested, converted to cDNA and specific βgal messages amplified by RS-PCR as described below. RS-PCR samples were resolved on a 1% TAE agarose gel and transferred to nylon filter. Filter was hybridized to a ^32P-labeled βgal probe. Filter was analyzed by betascanner and bands of the appropriate size counted. Fold-change=βgal CPM in beclomethasone treated cells/βgal. CPM in medium-treated cells. […] Briefly, cells were pre-treated with beclomethasone at 10^-6 M and transfected as described above. After the incubation was complete, cells were lysed using acidified guanidinium isothiocyante (Fluka Chemical), containing 0.75 M sodium citrate and 1% sarkosyl. RNA was harvested using the RNAeasy system (Qiagen, Chatsworth, Calif.). Total RNA quantity was determined by A260 and, 0.5 μg of the RNA was run on a gel to determine RNA integrity. Using 0.3 μg of total RNA, cDNAs were prepared using MMLV reverse transcriptase (GIBCO, Life Technologies), substituting primer […] […] One μl of cDNA was spotted to duplicate nitrocellulose filters and counted by LSC. […] Blots were evaluated on a Betagen betascanner and CPM for bands of the correct size were determined.

[6] = various doses, 4 hours prior to transfection with pCMVβ gal or pSVβ using DMRIE/DOPE

In the case of C[C@@H]1C[C@@H]([C@H](O)CC2CC(=O)NC(=O)C2)C(=O)[C@@H](C)C1 [CHX, cycloheximide], the “β-gal activity in control cells with protein synthesis inhibitor” value ([1]; CHX 10 μg/ml, 30 minutes + 4 hours) is reported as “moderately suppressed the β-gal activity”.
In the case of CC1(C)O[C@@H]2C[C@H]3[C@@H]4C[C@H](F)C5=CC(=O)C=C[C@]5(C)[C@H]4[C@@H](O)C[C@]3(C)[C@]2(C(=O)CO)O1 [FLUN, flunisolide], the “Degree of β-gal enhancement compared with the other glucocorticoids” value ([1]; 10^−6 M, 4 hours prior to transfection) is reported as “less of an enhancing effect” and the “Enhancement of β-gal activity by other topical glucocorticoids (FIG. 2B)” value ([1]; 10^−6 M, 4 hours prior to transfection, pCMVβgal-DMRIE/DOPE) is reported as “enhanced β-gal activity”.
With CCC(=O)OCC(=O)[C@@]1(OC(=O)CC)[C@@H](C)C[C@H]2[C@@H]3CCC4=CC(=O)C=C[C@]4(C)[C@@]3(Cl)[C@@H](O)C[C@@]21C [beclomethasone, beclomethasone dipropionate] the “Enhancement of β-gal activity” value ([1]; 5×10^−7 M to 10^−6 M, 4 hours prior to transfection, pCMVβgal-DMRIE/DOPE) was 2-4 fold, the “Minimum beclomethasone exposure required to see enhanced β-gal transfection” value ([1]; 10^−6 M) was 3 to 4 h and the “β-gal expression over untreated cells” value ([1]; then IL-1β 4 hours prior to transfection) was 2 fold. The “β-gal expression over untreated cells” value ([1]; then lipopolysacchride 4 hours prior to transfection) was 2 fold, the “Beclomethasone-mediated enhancement of β-gal activity in presence of CHX” value ([1]; 10^−6 M beclomethasone + CHX 10 μg/ml, 4 hours) was “even greater in the presence of CHX” and the “Enhancement of β-gal activity (FIG. 3)” value ([1]; 10^−6 M beclomethasone only, 4 hours) was 2.5 fold. For the same compound, the “Pre-treatment time at which enhanced β-gal activity was maximized” value ([1]; 10^−6 M, remained maximal for the 24 hours monitored) was at most 8 h, the “Enhancement of β-gal activity” value ([1]; 10^−7 M, 4 hours prior to transfection, pCMVβgal-DMRIE/DOPE) was “only slight enhancement” and the “FOLD-CHANGE, βGAL ACTIVITY” value ([1]; BEC 10^−6 M 4 hours, DNA-DMRIE/DOPE, 48 hours) was 3. For the same compound, the “βgal activity versus medium treated, transfected cells” value ([1]; IL-1β 4 hours first) was “augmented βgal activity above what was seen in medium treated, transfected cells”, the “Concentration producing maximal enhanced reporter gene activity” value ([1]; alternate lipid, promoter or reporter) was 5×10^−7 to 10^−6 M and the “βgal activity versus medium treated, transfected cells” value ([1]; lipopolysacchride 4 hours first) was “augmented βgal activity above what was seen in medium treated, transfected cells”. For the same compound, the “β-gal expression with alternate cationic lipid” value ([1]; pCMVβgal and DOSPA/DOPE (FIG. 5A)) was “also enhanced”, the “β-gal enhancement with SV40 promoter vector” value ([1]; pSVβ-DMRIE/DOPE (FIG. 5B)) was “enhancement was observed” and the “Effectiveness of 10^−6 M compared with 10^−7 M” value ([2]; 10^−6 M) was “less effective than was 10^−7 M”. For the same compound, the “βgal activity, beclomethasone pretreatment followed by lipopolysacchride stimulation” value ([2]; 4 hours beclomethasone + 4 hours lipopolysacchride) was “restored βgal activity to that of the medium pre-treated cells”, the “Concentration of optimum enhancement in βgal activity” value ([2]; 4 hours pretreatment) was 10^−7 M and the “Enhancement of β-gal activity” value ([2]; 4 hours pretreatment, pCMVβgal-DMRIE/DOPE, composite of several rat cell preparations) was 2 fold. The “FOLD-CHANGE, X-GAL STAINING” value [3] was 1.5 ± 0.7, the “Uptake of radiolabeled plasmid” value [4] was “does not appear to enhance uptake” and the “Steady-state β-gal mRNA levels versus medium-treated cells” value ([5]; T=3 and T=24 hours, 10^−6 M) was “definite increase in steady-state m RNA levels”. For the same compound, the “β-gal mRNA induction” value ([5]; T=2 hours after transfection, 10^−6 M 4 hours pretreatment) was 18 fold.
In the case of CC(C)CCC[C@@H](C)[C@H]1CC[C@H]2[C@@H]3CC=C4C[C@@H](O)CC[C@]4(C)[C@H]3CC[C@]12C [cholesterol], the “Enhancement of β-gal / reporter gene expression by other steroids” value [1, 6] is reported as “Enhancement of β-gal was only seen in the beclomethasone treated cells; also recorded: did not enhance reporter gene expression”.
In the case of C[C@]12CC[C@@H]3c4ccc(O)cc4CC[C@H]3[C@@H]1CC[C@@H]2O [estrogen, estradiol], the “Enhancement of β-gal / reporter gene expression by other steroids” value [1] is reported as “Enhancement of β-gal was only seen in the beclomethasone treated cells; also recorded: did not enhance reporter gene expression”.
In the case of CC(=O)[C@H]1CC[C@H]2[C@@H]3CCC4=CC(=O)CC[C@]4(C)[C@H]3CC[C@]12C [progesterone], the “Enhancement of β-gal / reporter gene expression by other steroids” value [1, 6] is reported as “Enhancement of β-gal was only seen in the beclomethasone treated cells; also recorded: did not enhance reporter gene expression”.
For Interleukin-1β [IL-1β], the “β-gal activity relative to medium treated cells” value ([1]; 100 U/ml IL-1β or 0.5 μg/ml lipopolysacchride for 4 hours before transfection with pCMVβgal-DMRIE/DOPE) was “decreased β-gal activity significantly; also recorded: suppressed the degree of β-gal expression”.
With cyclosporine A the “Reversal/enhancement of reporter gene expression by another immunosuppressant” value ([1]; cells pre-treated with cyclosporine A, cell type not stated) was “this effect was not seen; also recorded: the effect was not seen”.
